Assay results as given in patent publication US10925854B2, “Methods and compositions for preventing or treating fatty liver, protecting liver function or ameliorating liver diseases caused by fatty liver or other associated disorders” (SINEW PHARMA INC., priority 2015, dated 2021).
Read-outs that look alike come from different tables or passages of the source.

Columns and labels:
[1] = system: HepG2 fatty liver cells (induced with oleic acid); test: Reduction of TG content in oleic acid-induced HepG2 fatty liver cells; assay type: cell-based, human; conditions: for inhibition at 1 µM: Homo sapiens, read-out: TG reduction rate
Description: The activity of the various compounds of the present invention in reduction of fat content was analyzed by using human hepatoma cell line Hep G2.
HepG2 cell lines (15×10^6 cells) were cultured in DMEM culture No. B, incubated in an incubator with 5% CO2 at 37° C. for 24 hours, cultured in DMEM culture No. C (serum-free medium) for 24 hours, and finally cultured in DMEM culture No. D (containing oleate/albumin complex) for another 48 hours to induce HepG2 cell lines to form fatty liver cells.
HepG2 cell lines were divided into six groups, including: (1) Blank: no treatment; (2) DMSO group: cells from Blank were treated with dimethyl sulfoxide (DMSO); (3) Control: induction with oleic acid to form fatty liver cells; (4) Vehicle group: fatty liver cells formed by induction with oleic acid were treated with DMSO; (5) Positive control: fatty liver cells were treated with silymarin; and (6) Test Group: fatty liver cells were treated with various compounds of the present invention.
After incubation for 72 hours, the treated cells from each group were successively washed twice with PBS, and then incubated with 0.5 ml of trypsin/EDTA for 3 minutes. Afterwards, the cells were scraped with 2 ml of PBS and then transferred to the centrifuge tube to be shattered by ultrasonic. 20 μl of the cell extracts was taken to determine the content of protein. TG determination was performed using commercially available combination of agents (Randox). The TG content obtained above was divided by the protein content to obtain a ratio, representing a relative TG content in the cells.
The equation for calculating reduction rate (%) of TG was as follows: [1−(TG content of Test Group−TG content of Blank)/(TG content of Oleic acid induction Group−TG content of Blank)]×100%.

[2] = system: B6 mice fed with high fat feed (fatty liver); test: Serum ALT and AST (liver dysfunction) in mice with induced fatty liver; assay type: in vivo
Description: (§1) B6 mice recommended in the specification “Method for evaluating the liver protection and health care efficacies of health food” announced by the Department of Health were chosen for animal testing. More than four (4) mice were used in each group of the pre-test, while more than twelve (12) mice were used in each group of the confirmatory test. Male mice bred at 23±2° C. in an animal room with 55±15% relative humidity under normal light/dark cycle (7:00 AM-7:00 PM lights on/7:00 PM-7:00 AM lights off) and weighing 18-23 g were purchased from BioLASCO (Taipei) and housed at Laboratory Animal Center in National Defense Medical Center. The animal test was carried out according to the guideline for animal experiment of National Health Research Institutes. Mice were fed with normal feed at 3-5 g/day and unlimited supply of water for 1-2 weeks and investigated for health condition. The weight of mice was recorded once a week.
(§2) The tested animals were grouped randomly into Blank, High Fat Diet control (HFD), Positive Control (PS), and Test group. The animals of Blank were fed with normal feed. The animals of HFD were fed with high fat feed. The animals of PS were fed with high fat feed, and additionally fed with silymarin (5 mg/kg/day) by a tube. The animals of Test group were fed with high fat feed, and additionally force-fed with test compounds by a tube.
(§3) The animals of Blank were fed casually with normal feed for 12 weeks, while the animals of HFD, PS, and Test group were fed casually with high fat feed for 12 weeks. After 8 weeks of feeding, the animals of Blank and HFD were fed with deionized water by a tube once a day; the animals of PS were fed with silymarin by a tube once a day; and the animals of Test Group were fed with test compounds by a tube once a day for a duration of 4 or 8 weeks.
Before testing and in the eighth (8th), twelfth (12th), and sixteenth (16th) week after testing, blood was collected from the cheek or the heart. At the end of testing, all mice were weighted and then sacrificed, and blood was collected from the cheek or the heart simultaneously. The blood specimens of mice was placed at room temperature for one hour to clot, and then the serum was separated by centrifugation in a refrigeration centrifuge at 15,700×g at 4° C. for 5 minutes. Afterwards, biochemical indices of liver function, including aspartate transaminase (AST), alanine aminotransferase (ALT), triglyceride (TG), total cholesterol (TCHO/TC), low-density lipoprotein cholesterol (LDL-C), and high-density lipoprotein cholesterol (HDL-C), were detected by the automatic blood biochemistry analyzer.

[3] = system: B6 mice fed with high fat feed (fatty liver); test: Liver antioxidant capacity (Gpx, GSH, Grd, SOD) in mice with induced fatty liver; assay type: in vivo; conditions: fatty liver mice
Description: as §1, §2, §3
About 0.1 g of liver tissue was taken from the sacrificed animal and homogenized by centrifuge with a biomasher for 10 minutes. A 9-fold weight (w/w) of buffer (pH 7.4, 50 mmol/L Tris-HCl, 180 mmol/L KCl) was added to the homogenized tissue, which was then mixed well by a Vortex mixer for subsequent use. The resulting homogenization solution samples of liver tissue was used for the analysis of various members of liver antioxidant systems, including glutathione peroxidase (GPx), glutathione (GSH), glutathione reductase (Grd), and superoxide dismutase (SOD). Methods of related analysis can be found in the known literatures, for example, the draft of “Method for evaluating the liver protection and health care efficacies of health food” announced by the Ministry of Health and Welfare, Taiwan.

[4] = system: B6 mice fed with high fat feed (fatty liver); test: Liver lipids (TG, TC in liver) in mice with induced fatty liver; assay type: in vivo
Description: as §1, §2, §3
In addition, abdominal fat and liver specimens were taken from the abdomens of sacrificed mice and weighted to compare the weight of fat and liver and obtain a ratio of liver weight to body weight. Two tissue blocks with a volume of approximately 1 cm^3 were cut from the largest right lobe of liver, fixed in 10% neutral formalin solution, and then embedded with paraffin for sectioning and H&E staining for histopathological observation. Moreover, the rest of the liver was frozen for preservation and detection of the contents of triglyceride and total cholesterol in the liver. Furthermore, the liver function of animals of each group were analyzed by Galactose Single Point Method, which was recognized and recommended for quantification of remaining liver function in clinical use by U.S. FDA and Ministry of Health and Welfare, Taiwan. At the end of the tests, 0.5 g of galactose (G.S.P.® 0.4 g/mL) per kg of animal was administered via intravenous. One hour after the administration, about 0.5 ml of whole blood was taken by using a filter paper to evaluate liver function of mice. The higher the value of GSP was, the worse the remaining liver function would be (FDA: “Guidance for Industry: Pharmacokinetics in Patients with Impaired. Hepatic Function—Study Design, Data Analysis and Impact on Dosing and. Labeling. 2003).

[5] = 72 h, tested substances 1.0 uM, fatty liver cells from HepG2

## O=C1c2c(O)cc(O)cc2O[C@H](c2ccc(O)c(O)c2)[C@H]1O [(+)-taxifolin]
[1]; [5]
  inhibition at 1 µM: 17.9 ± 8.35%

## O=c1cc(-c2ccccc2)oc2cc(O)c(O)c(O)c12 [baicalein]
[1]; [5]
  inhibition at 1 µM: 7.09 ± 10.9%

## O=C(O)[C@H]1O[C@@H](Oc2cc3oc(-c4ccccc4)cc(=O)c3c(O)c2O)[C@H](O)[C@@H](O)[C@@H]1O [baicalin]
[1]; [5]
  inhibition at 1 µM: 9.21 ± 6.21%

## O=C(O)CC(O)(CC(=O)O)C(=O)O [citric acid]
[1]; [5]
  inhibition at 1 µM: 2.55 ± 4.43%

## O=c1c(-c2ccc(O)cc2)coc2cc(O)ccc12 [daidzein]
[1]; [5]
  inhibition at 1 µM: 42.3 ± 5.34%

## COc1ccc(-c2cc(=O)c3c(O)cc(O[C@@H]4O[C@H](CO[C@@H]5O[C@@H](C)[C@H](O)[C@@H](O)[C@H]5O)[C@@H](O)[C@H](O)[C@H]4O)cc3o2)cc1O [diosmin]
[1]; [5]
  inhibition at 1 µM: 11.9 ± 3.73%

## CC/C=C\C/C=C\C/C=C\C/C=C\C/C=C\CCCC(=O)O [eicosapentaenoic acid (EPA), eicosapentaenoic acid]
[1]; [5]
  inhibition at 1 µM: 26.1 ± 6.14%

## CC(C)[C@@H](C)/C=C/[C@@H](C)[C@H]1CC[C@H]2C3=CC=C4C[C@@H](O)CC[C@]4(C)[C@H]3CC[C@]12C [ergosterol]
[1]; [5]
  inhibition at 1 µM: 34.2 ± 3.69%

## COc1ccc(-c2coc3cc(O)ccc3c2=O)cc1 [formononetin]
[1]; [5]
  inhibition at 1 µM: 29.6 ± 1.44%

## O=c1c(O)c(-c2ccccc2)oc2cc(O)cc(O)c12 [galangin]
[1]; [5]
  inhibition at 1 µM: 28.1 ± 8.62%

## OCC(O)CO [glycerrin, glycerin]
[1]; [5]
  inhibition at 1 µM: 16.2 ± 4.25%

## CC1(C)[C@@H](O[C@H]2O[C@H](C(=O)O)[C@@H](O)[C@H](O)[C@H]2O[C@@H]2O[C@H](C(=O)O)[C@@H](O)[C@H](O)[C@H]2O)CC[C@]2(C)[C@H]3C(=O)C=C4[C@@H]5C[C@@](C)(C(=O)O)CC[C@]5(C)CC[C@@]4(C)[C@]3(C)CC[C@@H]12 [glycyrrhizin]
[1]; [5]
  inhibition at 1 µM: 10.6 ± 7.4%

## COc1ccc([C@@H]2CC(=O)c3c(O)cc(O)cc3O2)cc1O [hesperitin]
[2]
  effect on ALT and AST values (in words): can significantly reduce ALT and AST values
[3]
  effect on liver antioxidant activity (in words): can significantly enhance antioxidant activity
[4]
  effect on TC in liver (in words): reduces TC in liver significantly
  effect on TG in liver (in words): reduces TG in liver significantly
[1]; [5]
  inhibition at 1 µM: 16.1 ± 5.55%

## O=c1c(O[C@@H]2O[C@H](CO)[C@H](O)[C@H](O)[C@H]2O)c(-c2ccc(O)c(O)c2)oc2cc(O)cc(O)c12 [hyperoside]
[1]; [5]
  inhibition at 1 µM: 30.5 ± 2.8%

## O=c1cc(-c2ccc(O)cc2)oc2cc(O)c([C@@H]3O[C@H](CO)[C@@H](O)[C@H](O)[C@H]3O)c(O)c12 [isovitexin]
[1]; [5]
  inhibition at 1 µM: 35.9 ± 3.35%

## O=c1c(O)c(-c2ccc(O)cc2)oc2cc(O)cc(O)c12 [kaempferol]
[1]; [5]
  inhibition at 1 µM: 36.5 ± 4.78%

## O=c1cc(-c2ccc(O)c(O)c2)oc2cc(O)cc(O)c12 [luteolin]
[1]; [5]
  inhibition at 1 µM: 6.95 ± 15.2%

## O=c1c(O)c(-c2ccc(O)cc2O)oc2cc(O)cc(O)c12 [morin]
[1]; [5]
  inhibition at 1 µM: 25.8 ± 10.7%

## CCCCCCCCCCCCCC(=O)OCC [myristic acid ethyl ester]
[1]; [5]
  inhibition at 1 µM: 28.9 ± 3.91%

## C[C@@H]1O[C@@H](O[C@H]2[C@H](Oc3cc(O)c4c(c3)O[C@H](c3ccc(O)cc3)CC4=O)O[C@H](CO)[C@@H](O)[C@@H]2O)[C@H](O)[C@H](O)[C@H]1O [naringin]
[1]; [5]
  inhibition at 1 µM: 12.7 ± 3.72%

## CC(Cc1ccc(O)c(O)c1)C(C)Cc1ccc(O)c(O)c1 (stereo not drawn) [nordihydroguaiaretic acid]
[1]; [5]
  inhibition at 1 µM: 15.9 ± 2.3%

## O=C(CCc1ccc(O)cc1)c1c(O)cc(O)cc1O[C@@H]1O[C@H](CO)[C@@H](O)[C@H](O)[C@H]1O [phloridzin]
[1]; [5]
  inhibition at 1 µM: 42.4 ± 6.05%

## COc1ccc([C@@H]2CC(=O)c3c(O)cc(O[C@@H]4O[C@H](CO)[C@@H](O)[C@H](O)[C@H]4O[C@@H]4O[C@@H](C)[C@H](O)[C@@H](O)[C@H]4O)cc3O2)cc1 [poncirin]
[1]; [5]
  inhibition at 1 µM: 38.1 ± 7.22%

## O=C(O)c1ccc(O)c(O)c1 [protocatechuic acid]
[1]; HepG2, 72 h
  inhibition at 1 µM: 18.6 ± 7.6%

## O=c1c(-c2ccc(O)cc2)coc2c([C@@H]3O[C@H](CO)[C@@H](O)[C@H](O)[C@H]3O)c(O)ccc12 [puerarin]
[2]
  effect on ALT and AST values (in words): can significantly reduce ALT and AST values
[3]
  effect on liver antioxidant activity (in words): can significantly enhance antioxidant activity
[4]
  effect on TG in liver (in words): reduces TG in liver significantly
[1]; [5]
  inhibition at 1 µM: 49.9 ± 7.73%

## C[C@@H]1O[C@@H](Oc2c(-c3ccc(O)c(O)c3)oc3cc(O)cc(O)c3c2=O)[C@H](O)[C@H](O)[C@H]1O [quercitrin]
[1]; HepG2, 72 h
  inhibition at 1 µM: 9.15 ± 9.24%

## O=C1NS(=O)(=O)c2ccccc21 [saccharin]
[2]
  effect on ALT and AST values (in words): can significantly reduce ALT and AST values
[4]
  effect on TC in liver (in words): reduces TC in liver significantly
[1]; [5]
  inhibition at 1 µM: 17.5 ± 6.96%

## COc1cc(C2Oc3cc([C@H]4Oc5cc(O)cc(O)c5C(=O)[C@@H]4O)ccc3OC2CO)ccc1O (stereo partly drawn) [silybin]
[1]; [5]
  inhibition at 1 µM: 30.3 ± 3.24%

## COc1ccc(-c2cc(=O)c3c(OC)c(OC)c(OC)cc3o2)cc1OC [sinensetin]
[1]; [5]
  inhibition at 1 µM: 37 ± 4.84%

## CCCCCCCCCCCCOS(=O)(=O)[O-].[Na+] [sodium lauryl sulfate]
[1]; [5]
  inhibition at 1 µM: 38.7 ± 4.65%

## C/C=C/C=C/C(=O)O [sorbic acid]
[1]; [5]
  inhibition at 1 µM: 2.03 ± 1.96%

## OC[C@@H](O)[C@@H](O)[C@H](O)[C@@H](O)CO [sorbitol]
[1]; [5]
  inhibition at 1 µM: 20.1 ± 2.57%

## C=C[C@H]1[C@H](O[C@@H]2O[C@H](CO)[C@@H](O)[C@H](O)[C@H]2O)OC=C2C(=O)OCC[C@]21O [swrtiamarin, swertiamarin]
[1]; [5]
  inhibition at 1 µM: 6.72 ± 11%

## O=C(O)/C=C/c1ccccc1 [trans-Cinnamic Acid]
[1]; [5]
  inhibition at 1 µM: 15.8 ± 0.82%

## O=c1ccc2ccc(O)cc2o1 [umbelliferone]
[1]; [5]
  inhibition at 1 µM: 17.4 ± 2.57%

## C[C@H]1[C@H](C)CC[C@]2(C(=O)O)CC[C@]3(C)C(=CC[C@@H]4[C@@]5(C)CC[C@H](O)C(C)(C)[C@@H]5CC[C@]43C)[C@H]12 [ursolic Acid]
[1]; [5]
  inhibition at 1 µM: 35.9 ± 8.92%

## OC[C@@H](O)[C@H](O)[C@@H](O)CO [xylitol]
[1]; [5]
  inhibition at 1 µM: 7.36 ± 6.34%

## C=CC(=C)CCC=C(C)C [β-myrcene]
[1]; [5]
  inhibition at 1 µM: 34 ± 11.2%

## (−)-epicatechin-3-gallate
[1]; tested substances 1.0 uM, fatty liver cells from HepG2
  TG reduction rate: 32.7 ± 4.33%
